Activity calls are given as the source filed them. No cut-off for these calls is given here.
Tests used:
[1] = tested on: Staphylococcus aureus; experiment: Antibacterial activity against Staphylococcus aureus; format: functional, organism-based
[2] = tested on: BGC-823; experiment: Cytotoxicity against human BGC823 cells; format: functional, cell-based
[3] = tested on: K562; experiment: Cytotoxicity against human K562 cells; format: functional, cell-based
[4] = tested on: HL-60; experiment: Cytotoxicity against human HL60 cells; format: functional, cell-based
[5] = tested on: Staphylococcus aureus; experiment: Antibiofilm activity against Staphylococcus aureus assessed as inhibition of biofilm formation by crystal violet assay; format: functional, organism-based
[6] = tested on: Huh-7; experiment: Cytotoxicity against human HuH7 cells; format: functional, cell-based
[7] = tested on: MCF7; experiment: Cytotoxicity against human MCF7 cells; format: functional, cell-based
[8] = tested on: Shewanella oneidensis; experiment: Antibacterial activity against Shewanella oneidensis MR-1; format: functional
[9] = tested on: Shewanella oneidensis; experiment: Antibiofilm activity against Shewanella oneidensis MR-1 assessed as inhibition of biofilm formation at 200 ug/ml by crystal violet assay; format: functional
[10] = biological target: Acetylcholinesterase (Homo sapiens) (UniProt P22303); experiment: Inhibition of acetylcholinesterase (unknown origin)
Sequence of Acetylcholinesterase (Homo sapiens) (P22303 whole entry): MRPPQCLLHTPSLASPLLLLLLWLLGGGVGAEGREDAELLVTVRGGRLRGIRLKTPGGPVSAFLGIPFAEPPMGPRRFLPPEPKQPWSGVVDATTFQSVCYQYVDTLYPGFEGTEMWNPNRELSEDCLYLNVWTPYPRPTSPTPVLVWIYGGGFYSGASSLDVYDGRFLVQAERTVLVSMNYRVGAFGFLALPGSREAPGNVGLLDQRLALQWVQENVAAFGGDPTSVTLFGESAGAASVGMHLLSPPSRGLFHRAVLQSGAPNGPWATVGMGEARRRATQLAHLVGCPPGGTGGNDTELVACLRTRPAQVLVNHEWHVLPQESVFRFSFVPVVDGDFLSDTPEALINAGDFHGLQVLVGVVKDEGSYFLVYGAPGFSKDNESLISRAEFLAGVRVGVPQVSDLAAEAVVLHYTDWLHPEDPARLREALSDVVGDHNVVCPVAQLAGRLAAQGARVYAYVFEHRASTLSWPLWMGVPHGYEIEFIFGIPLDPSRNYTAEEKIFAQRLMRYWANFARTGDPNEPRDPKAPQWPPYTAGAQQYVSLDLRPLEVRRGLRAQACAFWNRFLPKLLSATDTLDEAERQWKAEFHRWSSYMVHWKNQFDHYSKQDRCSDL

[11] = tested on: NCI-H1975; experiment: Cytotoxicity against human NCI-H1975 cells; format: functional, cell-based

SMILES | Activity [1] | Activity [2] | Activity [3] | Activity [4] | Activity [5] | Activity [6] | Activity [7] | Activity [8] | inhibition at 200 µg/mL [9] [%] | inhibition [10] | Activity [11]
CC1=C[C@@]2(C)[C@@H]([C@@H](/C=C(\C)C(=O)O)[C@@H]1/C(C)=C/C[C@H](O)C[C@@H](O)C[C@@H](O)[C@H](C)[C@@H](O)C(C)C)[C@@H](C)CC[C@H]2O | inactive | inactive | inactive | inactive | inactive | inactive | inactive | inactive | 95 | inactive | inactive
CC1=C[C@@]2(C)[C@H]([C@@H](C)[C@H](O)C[C@H]2O)[C@@H](/C=C(\C)C(=O)O)[C@@H]1/C(C)=C/C[C@H](O)C[C@@H](O)C[C@@H](O)[C@H](C)[C@@H](O)C(C)C | inactive | inactive | inactive | inactive | inactive | inactive | inactive | inactive | 91 | inactive | inactive
CC1=C[C@@]2(C)[C@H]([C@@H](C)[C@H](O)C[C@H]2O)[C@@H](/C=C(\C)C(=O)O)[C@@H]1/C(C)=C/C[C@H](O)C[C@@H](O)[C@H](C)[C@@H](O)C(C)C | inactive | inactive | inactive | inactive | inactive | inactive | inactive | inactive | 98 | inactive | inactive
CC1=C[C@@]2(C)[C@@H]([C@@H](/C=C(\C)C(=O)O)[C@@H]1/C(C)=C/C[C@H](O)C[C@@H](O)[C@H](C)[C@@H](O)C(C)C)[C@@H](C)CC[C@H]2O | inactive | inactive | inactive | inactive | inactive | inactive | inactive | inactive | 94 | inactive | inactive
CC1=C[C@@]2(C)[C@H]([C@@H](C)[C@H](O)[C@H](O)[C@H]2O)[C@@H](/C=C(\C)C(=O)O)[C@@H]1/C(C)=C/C[C@H](O)C[C@@H](O)[C@H](C)[C@@H](O)C(C)C | inactive | inactive | inactive | inactive | inactive | inactive | inactive | inactive | 63 | inactive | inactive
